± gives the expanded uncertainty stated by the source.
Details: 303.15 K, Liquid, Vibrating tube method

CCCCCC(=O)OCC(COC(=O)CCCCC)(COC(=O)CCCCC)COC(=O)CCCCC [pentaerythritol tetrahexanoate]
mass density (27178 kPa): 1004.7 ± 1.2 kg/m3
mass density (27208 kPa): 1004.8 ± 1.2 kg/m3
mass density (27234 kPa): 1004.7 ± 1.2 kg/m3
mass density (27260 kPa): 1004.7 ± 1.2 kg/m3
mass density (27291 kPa): 1004.6 ± 1.2 kg/m3
mass density (27317 kPa): 1004.6 ± 1.2 kg/m3
mass density (27343 kPa): 1004.7 ± 1.2 kg/m3
mass density (27369 kPa): 1004.9 ± 1.2 kg/m3
mass density (27400 kPa): 1004.9 ± 1.2 kg/m3
mass density (27426 kPa): 1004.8 ± 1.2 kg/m3
mass density (27458 kPa): 1004.7 ± 1.2 kg/m3
mass density (27484 kPa): 1004.8 ± 1.2 kg/m3
mass density (27511 kPa): 1004.8 ± 1.2 kg/m3
mass density (27537 kPa): 1004.8 ± 1.2 kg/m3
mass density (27564 kPa): 1004.8 ± 1.2 kg/m3
mass density (27595 kPa): 1004.9 ± 1.2 kg/m3
mass density (27621 kPa): 1004.9 ± 1.2 kg/m3
mass density (27654 kPa): 1005 ± 1.2 kg/m3
mass density (27682 kPa): 1004.9 ± 1.2 kg/m3
mass density (27708 kPa): 1005 ± 1.2 kg/m3
mass density (27734 kPa): 1004.9 ± 1.2 kg/m3
mass density (27761 kPa): 1005 ± 1.2 kg/m3
mass density (27793 kPa): 1005 ± 1.2 kg/m3
mass density (27820 kPa): 1005.1 ± 1.2 kg/m3
mass density (27852 kPa): 1005.1 ± 1.2 kg/m3
mass density (27879 kPa): 1005.1 ± 1.2 kg/m3
mass density (27906 kPa): 1005 ± 1.2 kg/m3
mass density (27938 kPa): 1005 ± 1.2 kg/m3
mass density (27965 kPa): 1005.2 ± 1.2 kg/m3
mass density (27993 kPa): 1005.2 ± 1.2 kg/m3
mass density (28027 kPa): 1005.2 ± 1.2 kg/m3
mass density (28056 kPa): 1005 ± 1.2 kg/m3
mass density (28083 kPa): 1005.1 ± 1.2 kg/m3
mass density (28110 kPa): 1005.1 ± 1.2 kg/m3
mass density (28143 kPa): 1005.1 ± 1.2 kg/m3
mass density (28171 kPa): 1005.3 ± 1.2 kg/m3
mass density (28199 kPa): 1005.3 ± 1.2 kg/m3
mass density (28227 kPa): 1005.2 ± 1.2 kg/m3
mass density (28260 kPa): 1005.2 ± 1.2 kg/m3
mass density (28288 kPa): 1005.2 ± 1.2 kg/m3
mass density (28317 kPa): 1005.3 ± 1.2 kg/m3
mass density (28351 kPa): 1005.4 ± 1.2 kg/m3
mass density (28379 kPa): 1005.3 ± 1.2 kg/m3
mass density (28409 kPa): 1005.3 ± 1.2 kg/m3
mass density (28443 kPa): 1005.3 ± 1.2 kg/m3
mass density (28471 kPa): 1005.3 ± 1.2 kg/m3
mass density (28500 kPa): 1005.4 ± 1.2 kg/m3
mass density (28535 kPa): 1005.4 ± 1.2 kg/m3
mass density (28564 kPa): 1005.4 ± 1.2 kg/m3
mass density (28594 kPa): 1005.5 ± 1.2 kg/m3
mass density (28658 kPa): 1005.5 ± 1.2 kg/m3
mass density (28687 kPa): 1005.5 ± 1.2 kg/m3
mass density (28718 kPa): 1005.5 ± 1.2 kg/m3
mass density (28743 kPa): 1005.5 ± 1.2 kg/m3
mass density (28769 kPa): 1005.6 ± 1.2 kg/m3
mass density (28800 kPa): 1005.6 ± 1.2 kg/m3
mass density (28826 kPa): 1005.5 ± 1.2 kg/m3
mass density (28851 kPa): 1005.6 ± 1.2 kg/m3
mass density (28877 kPa): 1005.6 ± 1.2 kg/m3
mass density (28909 kPa): 1005.6 ± 1.2 kg/m3
mass density (29460 kPa): 1006.1 ± 1.2 kg/m3
mass density (29484 kPa): 1005.9 ± 1.2 kg/m3
mass density (29506 kPa): 1005.9 ± 1.2 kg/m3
mass density (29534 kPa): 1006 ± 1.2 kg/m3
mass density (29556 kPa): 1006 ± 1.2 kg/m3
mass density (29580 kPa): 1006 ± 1.2 kg/m3
mass density (29607 kPa): 1006 ± 1.2 kg/m3
mass density (29630 kPa): 1006 ± 1.2 kg/m3
mass density (29658 kPa): 1006.1 ± 1.2 kg/m3
mass density (29682 kPa): 1006.1 ± 1.2 kg/m3
mass density (29705 kPa): 1006.1 ± 1.2 kg/m3
mass density (29729 kPa): 1006 ± 1.2 kg/m3
mass density (29756 kPa): 1006 ± 1.2 kg/m3
mass density (29780 kPa): 1006.1 ± 1.2 kg/m3
mass density (29804 kPa): 1006.2 ± 1.2 kg/m3
mass density (29831 kPa): 1006.2 ± 1.2 kg/m3
mass density (29856 kPa): 1006.1 ± 1.2 kg/m3
mass density (29879 kPa): 1006.1 ± 1.2 kg/m3
mass density (29902 kPa): 1006.2 ± 1.2 kg/m3
mass density (29931 kPa): 1006.1 ± 1.2 kg/m3
mass density (29954 kPa): 1006.1 ± 1.2 kg/m3
mass density (29983 kPa): 1006.2 ± 1.2 kg/m3
mass density (30006 kPa): 1006.3 ± 1.2 kg/m3
mass density (30030 kPa): 1006.3 ± 1.2 kg/m3
mass density (30059 kPa): 1006.2 ± 1.2 kg/m3
mass density (30083 kPa): 1006.3 ± 1.2 kg/m3
mass density (30108 kPa): 1006.3 ± 1.2 kg/m3
mass density (30132 kPa): 1006.3 ± 1.2 kg/m3
mass density (30161 kPa): 1006.4 ± 1.2 kg/m3
mass density (30185 kPa): 1006.4 ± 1.2 kg/m3
mass density (30209 kPa): 1006.2 ± 1.2 kg/m3
mass density (30233 kPa): 1006.3 ± 1.2 kg/m3
mass density (30262 kPa): 1006.3 ± 1.2 kg/m3
mass density (30287 kPa): 1006.3 ± 1.2 kg/m3
mass density (31166 kPa): 1006.8 ± 1.2 kg/m3
mass density (31197 kPa): 1006.8 ± 1.2 kg/m3
mass density (31224 kPa): 1006.8 ± 1.2 kg/m3
mass density (31255 kPa): 1006.9 ± 1.2 kg/m3
mass density (31283 kPa): 1006.9 ± 1.2 kg/m3
mass density (31310 kPa): 1006.9 ± 1.2 kg/m3
mass density (31337 kPa): 1006.9 ± 1.2 kg/m3
mass density (31370 kPa): 1007 ± 1.2 kg/m3
mass density (31398 kPa): 1007 ± 1.2 kg/m3
mass density (31426 kPa): 1007 ± 1.2 kg/m3
mass density (31459 kPa): 1006.9 ± 1.2 kg/m3
mass density (31483 kPa): 1007.1 ± 1.2 kg/m3
mass density (31506 kPa): 1007.1 ± 1.2 kg/m3
mass density (31534 kPa): 1006.9 ± 1.2 kg/m3
mass density (31556 kPa): 1007.1 ± 1.2 kg/m3
mass density (31580 kPa): 1007 ± 1.2 kg/m3
mass density (31608 kPa): 1007.1 ± 1.2 kg/m3
mass density (31632 kPa): 1007.1 ± 1.2 kg/m3
mass density (31656 kPa): 1007.2 ± 1.2 kg/m3
mass density (31683 kPa): 1007.1 ± 1.2 kg/m3
mass density (31701 kPa): 1007.2 ± 1.2 kg/m3
mass density (31719 kPa): 1007.1 ± 1.2 kg/m3
mass density (31737 kPa): 1007.2 ± 1.2 kg/m3
mass density (31758 kPa): 1007.1 ± 1.2 kg/m3
mass density (31777 kPa): 1007.2 ± 1.2 kg/m3
mass density (31795 kPa): 1007.2 ± 1.2 kg/m3
mass density (31814 kPa): 1007.4 ± 1.2 kg/m3
mass density (31835 kPa): 1007.2 ± 1.2 kg/m3
mass density (31853 kPa): 1007.2 ± 1.2 kg/m3
mass density (31875 kPa): 1007.2 ± 1.2 kg/m3
mass density (31893 kPa): 1007.3 ± 1.2 kg/m3
mass density (31911 kPa): 1007.3 ± 1.2 kg/m3
mass density (31933 kPa): 1007.2 ± 1.2 kg/m3
mass density (31951 kPa): 1007.3 ± 1.2 kg/m3
mass density (31969 kPa): 1007.3 ± 1.2 kg/m3
mass density (31990 kPa): 1007.5 ± 1.2 kg/m3
mass density (32009 kPa): 1007.4 ± 1.2 kg/m3
mass density (32027 kPa): 1007.3 ± 1.2 kg/m3
mass density (32049 kPa): 1007.3 ± 1.2 kg/m3
mass density (32068 kPa): 1007.3 ± 1.2 kg/m3
mass density (32086 kPa): 1007.4 ± 1.2 kg/m3
mass density (32104 kPa): 1007.4 ± 1.2 kg/m3
mass density (32127 kPa): 1007.5 ± 1.2 kg/m3
mass density (32145 kPa): 1007.4 ± 1.2 kg/m3
mass density (32167 kPa): 1007.4 ± 1.2 kg/m3
mass density (32186 kPa): 1007.4 ± 1.2 kg/m3
mass density (32204 kPa): 1007.4 ± 1.2 kg/m3
mass density (32226 kPa): 1007.5 ± 1.2 kg/m3
mass density (32244 kPa): 1007.4 ± 1.2 kg/m3
mass density (32403 kPa): 1007.6 ± 1.2 kg/m3
mass density (32426 kPa): 1007.6 ± 1.2 kg/m3
